A short description of data set [1]: logP determination by reversed-phase HPLC (EEC Directive 79/831 Annex V.A8), acidic range. The data set is classed as physicochemical. The protocol: The logP values given in the table were determined in accordance with EEC Directive 79/831 Annex V.A8 by HPLC (High Performance Liquid Chromatography) using a reversed-phase column (C 18). Temperature: 43° C.
(a) Mobile phases for the determination in the acidic range: 0.1% phosphoric acid, acetonitrile; linear gradient from 10% acetonitrile to 90% acetonitrile—the corresponding measurement results in Table 1 are marked a).
Calibration was carried out using unbranched alkan-2-ones (having 3 to 16 carbon atoms) with known logP values (determination of the logP values by the retention times using linear interpolation between two successive alkanones).

The subject of data set [2] is weeds. Description: Post-emergence test (herbicidal action). Conditions: test plants of 5-15 cm sprayed, rated after three weeks. The data set is classed as in vivo. The protocol: Post-Emergence Test (Herbicidal Action)
(§1) To produce a suitable preparation of active compound, 1 part by weight of active compound is mixed with the stated amount of solvent, the stated amount of emulsifier is added and the concentrate is diluted with water to the desired concentration.
Test plants of a height of 5-15 cm are sprayed with the preparation of active compound such that the particular amounts of active compound desired are applied per unit area. The concentration of the spray liquor is chosen such that the particular amounts of active compound desired are applied in 1000 l of water/ha.
(§2) After three weeks, the degree of damage to the plants is rated in % damage in comparison to the development of the untreated control.

Data set [3] has as its system weeds. Description: Pre-emergence test (herbicidal action). Type of data set: in vivo. Conditions: soil sprayed 24 hours after sowing, rated after three weeks. The protocol: Pre-Emergence Test (Herbicidal Action)
as §1
Seeds of the test plants are sown in normal soil. After 24 hours, the soil is sprayed with the preparation of active compound such that the particular amount of active compound desired is applied per unit area. The concentration of active compound in the spray liquor is chosen such that the particular amount of active compound desired is applied in 1000 litres of water per hectare.
as §2

Setting [4] is: pH 2, HPLC, C18 reversed-phase column, read-out: logP (pH 2).

Read-outs that look alike come from different tables or passages of the source.

On to “1-(3-chloro-5-trifluoromethylpyridin-2-yl)-4-methoxy-6-cyclopropylpyrazolopyrimidin-4-one [Example 110]”, for which, in data set [1], the “logP a) (Table 1, Physical data)” value is “(Ia) logP = 3.97^a)”. For the same molecule, the “logP (pH 2)” value in data set [1] (pH 2) was 3.97. For the same molecule, the “herbicidal action against weeds (degree of damage)” value (from here on “herbicidal action against weeds”) in the data set on weeds [2] is reported as “strong action against weeds”.

`O=c1[nH]cnc2c1cnn2-c1ncc(C(F)(F)F)cc1Cl` [Example 1, 1-(3-chloro-5-trifluoromethylpyridin-2-yl)-1,5-dihydropyrazolo[3,4-d]pyrimidin-4-one] yielded a melting point of 331 °C. Also, the chromatographic logP in data set [1] (setting [4]) stood at 1.54.

As for `Cc1nc2c(cnn2-c2ncc(C(F)(F)F)cc2Cl)c(=O)[nH]1` [Example 7], the “logP a) (Table 1, Physical data)” value in data set [1] is “(I) logP = 1.64^a)”.

Take `Cc1nc2c(cnn2-c2ncc(C(F)(F)F)cc2Cl)c(=O)n1C` [Example 8]: the “logP a) (Table 1, Physical data)” value in data set [1] is “(I) logP = 1.97^a)”. Moreover, in the data set with weeds [3], the “herbicidal action against weeds” value is “strong action against weeds”.

Take `O=c1[nH]c(C(Cl)Cl)nc2c1cnn2-c1ncc(C(F)(F)F)cc1Cl` [Example 12]: in data set [1], the “logP a) (Table 1, Physical data)” value was “(I) logP = 2.39^a)”.

With `CCc1nc2c(cnn2-c2ncc(C(F)(F)F)cc2Cl)c(=O)[nH]1` [Example 13], in data set [1], the “logP a) (Table 1, Physical data)” value was “(I) logP = 2.39^a)”.

Turning to `CC(C)c1nc2c(cnn2-c2ncc(C(F)(F)F)cc2Cl)c(=O)[nH]1` [Example 17], the “logP a) (Table 1, Physical data)” value in data set [1] is “(I) logP = 2.36^a)”.

Take `CC(C)c1nc2c(cnn2-c2ncc(C(F)(F)F)cc2Cl)c(=O)n1C` [Example 18]: the “logP a) (Table 1, Physical data)” value in data set [1] is “(I) logP = 2.89^a)”. The “herbicidal action against weeds” value with weeds [3] and in the data set with weeds [2] was “strong action against weeds” each time.

Consider `CCCc1nc2c(cnn2-c2ncc(C(F)(F)F)cc2Cl)c(=O)[nH]1` [Example 23], for which the “logP a) (Table 1, Physical data)” value in data set [1] is “(I) logP = 2.28^a)”.

For `CCCc1nc2c(cnn2-c2ncc(C(F)(F)F)cc2Cl)c(=O)n1C` [Example 24], the “logP a) (Table 1, Physical data)” value in data set [1] is “(I) logP = 2.81^a)”. Also, the “herbicidal action against weeds” value in the data set on weeds [3] and in the data set on weeds [2] was “strong action against weeds” in each case.

As for `CC(C)Cc1nc2c(cnn2-c2ncc(C(F)(F)F)cc2Cl)c(=O)[nH]1` [Example 25], the “logP a) (Table 1, Physical data)” value in data set [1] is “(I) logP = 2.52^a)”.

As for `CC(C)(C)c1nc2c(cnn2-c2ncc(C(F)(F)F)cc2Cl)c(=O)[nH]1` [Example 26], the “logP a) (Table 1, Physical data)” value in data set [1] was “(I) logP = 2.74^a)”.

For `COc1nc(C(C)(C)C)nc2c1cnn2-c1ncc(C(F)(F)F)cc1Cl` [Example 27], the “logP a) (Table 1, Physical data)” value in data set [1] is given as “(Ia) logP = 2.74^a)”. Also, the “herbicidal action against weeds” value in the data set on weeds [3] and with weeds [2] was “strong action against weeds” in each case.

As for `O=c1[nH]c(C(F)(F)F)nc2c1cnn2-c1ncc(C(F)(F)F)cc1Cl` [Example 37], in data set [1], the “logP a) (Table 1, Physical data)” value is “(I) logP = 2.42^a)”.

With `Cn1c(C(F)(F)F)nc2c(cnn2-c2ncc(C(F)(F)F)cc2Cl)c1=O` [Example 38], the “logP a) (Table 1, Physical data)” value in data set [1] is given as “(I) logP = 3.11^a)”.

`COc1nc(C(F)(F)F)nc2c1cnn2-c1ncc(C(F)(F)F)cc1Cl` [Example 39]: in data set [1], the “logP a) (Table 1, Physical data)” value is “(Ia) logP = 3.99^a)”. Also, in the data set with weeds [2], the “herbicidal action against weeds” value was “strong action against weeds”.

With `CCOC(=O)COc1nc(C(F)(F)F)nc2c1cnn2-c1ncc(C(F)(F)F)cc1Cl` [Example 42], the “logP a) (Table 1, Physical data)” value in data set [1] was “(Ia) logP = 4.05^a)”.

For `O=c1[nH]c(C(F)(F)Cl)nc2c1cnn2-c1ncc(C(F)(F)F)cc1Cl` [Example 43], the “logP a) (Table 1, Physical data)” value in data set [1] is recorded as “(I) logP = 2.53^a)”.

With `O=c1[nH]c(C(F)(F)C(F)(F)F)nc2c1cnn2-c1ncc(C(F)(F)F)cc1Cl` [Example 44], the “logP a) (Table 1, Physical data)” value in data set [1] is given as “(I) logP = 2.84^a)”.

For the molecule `CCOC(=O)c1nc2c(cnn2-c2ncc(C(F)(F)F)cc2Cl)c(=O)n1C` [Example 46], the “logP a) (Table 1, Physical data)” value in data set [1] is “(I) logP = 2.74^a)”.

Turning to `CCn1c(C2CC2)nc2c(cnn2-c2ncc(C(F)(F)F)cc2Cl)c1=O` [Example 50], in data set [1], the “logP a) (Table 1, Physical data)” value was “(I) logP = 2.96^a)”.

`CCOc1nc(C2CC2)nc2c1cnn2-c1ncc(C(F)(F)F)cc1Cl` [Example 51]: the “logP a) (Table 1, Physical data)” value in data set [1] is on record as “(Ia) logP = 4.42^a)”.

As to `CC(C)Oc1nc(C2CC2)nc2c1cnn2-c1ncc(C(F)(F)F)cc1Cl` [Example 52], the “logP a) (Table 1, Physical data)” value in data set [1] is listed as “(Ia) logP = 4.86^a)”.

For `C#CCn1c(C2CC2)nc2c(cnn2-c2ncc(C(F)(F)F)cc2Cl)c1=O` [Example 56], in data set [1], the “logP a) (Table 1, Physical data)” value is listed as “(I) logP = 2.95^a)”.

As to `FC(F)Oc1nc(C2CC2)nc2c1cnn2-c1ncc(C(F)(F)F)cc1Cl` [Example 57], in data set [1], the “logP a) (Table 1, Physical data)” value is given as “(Ia) logP = 4.24^a)”. The “herbicidal action against weeds” value in the data set on weeds [3] and in the data set on weeds [2] was “strong action against weeds” in each case.

For `CCOC(=O)COc1nc(C2CC2)nc2c1cnn2-c1ncc(C(F)(F)F)cc1Cl` [Example 58], the “logP a) (Table 1, Physical data)” value in data set [1] is reported as “(Ia) logP = 3.88^a)”.

As to `Cn1c(C2(F)CC2)nc2c(cnn2-c2ncc(C(F)(F)F)cc2Cl)c1=O` [Example 59], the “logP a) (Table 1, Physical data)” value in data set [1] is listed as “(I) logP = 2.82^a)”. Also, the “herbicidal action against weeds” value with weeds [3] and in the data set on weeds [2] was “strong action against weeds” throughout.

As for `COc1nc(C2(F)CC2)nc2c1cnn2-c1ncc(C(F)(F)F)cc1Cl` [Example 60], the “logP a) (Table 1, Physical data)” value in data set [1] was “(Ia) logP = 3.73^a)”. Also, the “herbicidal action against weeds” value with weeds [3] and in the data set with weeds [2] was “strong action against weeds” throughout.

For the molecule `O=c1[nH]c(C2CCC2)nc2c1cnn2-c1ncc(C(F)(F)F)cc1Cl` [Example 63], in data set [1], the “logP a) (Table 1, Physical data)” value is listed as “(I) logP = 2.46^a)”.

On to `Cn1c(C2CCC2)nc2c(cnn2-c2ncc(C(F)(F)F)cc2Cl)c1=O` [Example 64], for which the “logP a) (Table 1, Physical data)” value in data set [1] is recorded as “(I) logP = 3.03^a)”. Further, the “herbicidal action against weeds” value with weeds [3] and in the data set on weeds [2] was “strong action against weeds” throughout.

As to `COc1nc(C(F)(F)F)nc2c1cnn2-c1ncc(Cl)cc1Cl` [Example 72], the “logP a) (Table 1, Physical data)” value in data set [1] is “(Ia) logP = 3.76^a)”.

With `Cc1nc2c(cnn2-c2ccc(C(F)(F)F)cc2Cl)c(=O)n1C` [Example 81], the “logP a) (Table 1, Physical data)” value in data set [1] is “(I) logP = 2.30^a)”.

For the molecule `CC(C)c1nc2c(cnn2-c2ccc(C(F)(F)F)cc2Cl)c(=O)n1C` [Example 84], the “logP a) (Table 1, Physical data)” value in data set [1] is “(I) logP = 3.52^a)”.

Consider `Cc1nc2c(cnn2-c2nn(C)c(OC(F)F)c2Cl)c(=O)[nH]1` [Example 98], for which the “logP a) (Table 1, Physical data)” value in data set [1] is “(I) logP = 1.40^a)m.p. = 254 °C”.

For `Cc1nc2c(cnn2-c2nn(C)c(OC(F)F)c2Cl)c(=O)n1C` [Example 99], the “logP a) (Table 1, Physical data)” value in data set [1] was “(I) logP = 1.68^a)m.p. = 199 °C”.

On to `Cn1nc(-n2ncc3c(=O)[nH]c(C4CC4)nc32)cc1OC(F)F` [Example 101], for which the “logP a) (Table 1, Physical data)” value in data set [1] is reported as “(I) logP = 1.59^a)”.

Regarding `Cn1nc(-n2ncc3c(=O)n(C)c(C4CC4)nc32)cc1OC(F)F` [Example 102], in data set [1], the “logP a) (Table 1, Physical data)” value is “(I) logP = 1.90^a)”.

Turning to `COc1nc(C2CC2)nc2c1cnn2-c1cc(OC(F)F)n(C)n1` [Example 103], the “logP a) (Table 1, Physical data)” value in data set [1] is recorded as “(Ia) logP = 3.02^a)”.

On to `Cn1nc(-n2ncc3c(=O)[nH]c(C4CC4)nc32)c(Cl)c1OC(F)F` [Example 106], for which the “logP a) (Table 1, Physical data)” value in data set [1] is “(I) logP = 1.85^a)m.p. = 210 °C”.

For `Cn1nc(-n2ncc3c(=O)n(C)c(C4CC4)nc32)c(Cl)c1OC(F)F` [Example 107], the “logP a) (Table 1, Physical data)” value in data set [1] was “(I) logP = 2.21^a)m.p. = 220 °C”.

With `Cn1c(C2CC2)nc2c(cnn2-c2ncc(C(F)(F)F)cc2Cl)c1=O` [Example 109, 1-(3-chloro-5-trifluoromethylpyridin-2-yl)-5-methyl-6-cyclopropyl-1,5-dihydropyrazolo[3,4-d]pyrimidin-4-one], the chromatographic logP in data set [1] (setting [4]) was found to be 2.61; in data set [1] (reversed-phase HPLC column (C18); acidic range: 0.1% phosphoric acid, acetonitrile gradient; C18; 43° C.; read-out: logP a) (Table 1, Physical data)), 2.61. In addition, the “herbicidal action against weeds” value in the data set on weeds [3] and in the data set with weeds [2] was “strong action against weeds” each time.

For `NC(=O)c1cnn(-c2ncc(Cl)cc2Cl)c1N` [II-2], the “logP a) (Table 2, Physical data)” value in data set [1] is reported as “logP = 1.02^a)”.

`CC(C)(C)C(=O)Nc1c(C(N)=O)cnn1-c1ncc(C(F)(F)F)cc1Cl` [VI-2]: the “logP a) (Table 3, Physical data)” value in data set [1] is “logP = 2.20^a)”.

Take `CC(C)(CCl)C(=O)Nc1c(C(N)=O)cnn1-c1ncc(C(F)(F)F)cc1Cl` [VI-3]: in data set [1], the “logP a) (Table 3, Physical data)” value was “logP = 2.26^a)”.

One may read the melting point as the temperature of the solid-liquid transition.

The values are drawn from patent publication US20050209251A1, “Substituted pyrazolo-pyrimidine-4-ones” (priority 2002, published 2005).
